# Test results published in patent publication US4153710A, “N-(4-[2-(pyrazole-1-carbonamide)-ethyl]-benzenesulphonyl)-urea” (Starogardzkie Zaklady Farmaceutyczne POLFA, priority 1976, dated 1979).
# “And” between values parts separate entries of the source, which are not always exact repeats. Equal entries are not always repeated.
# How the values were obtained:
# [1] = system: blood-glucose concentration; assay: ED30 oral hypoglycemic dose in rabbits (Table 2); assay type: in vivo; settings: Oryctolagus cuniculus, read-out: Effective oral doses ED30
# Method: (§1) The hypoglycemic activity of N-{4-[2-(pyrazole-1-carbonamide)-ethyl]-benzenesulphonyl}-ureas prepared according to the present invention can be noticed after their oral administration to mice, rats, rabbits and people and when determining the glucose concentration in blood with a known enzymatic method using glucose oxidase.
# (§2) (Table 2). […] It has been observed that even 9 hours after the administration of one dose of SPC-5002 to rats, the glucose level in blood was decreased, whereas in the case of Glibornuride the glucose level comes back to its normal value in 6 hours from the time of the administration.
# [2] = system: oxidizing phosphorylation in mitochondria of a rat's liver; assay: Oxidizing phosphorylation of rat liver mitochondria; assay type: biochemical; settings: for Ki: rat liver mitochondria
# Method: 2-oxoglutaran 2 mM, ADP 1 mM, mitochondria | protein 4 mg/m. […] The | oxidizing phosphorylation speed was determined by means of the measuremen | of hydrogen ion consumption. The calcium transmission to mitochondria was […]
# [3] = system: free fatty acids concentration; assay: Free fatty acids in normal men volunteers (Table 7); assay type: in vivo; settings: oral 5 mg SPC-5002 or 12.5 mg Glibornuride
# Method: (§3) When administered to normal men volunteers it has been stated that 60 minutes after the administration of SPC-5002 a 5 mg oral dose causes the decrease in blood-glucose of 28% in comparision to the starting value and after 90 minutes it reaches 33% (Table 7). Whereas Glibornuride employed in a dose 2.5 times as big on peak of its activity decreases the glucose blood level only of 19%. It can clearly be noticed that there is a positive correlation between the glycemic and insulin level curves. Both examined preparations cause a significant decrease in free fatty acids in blood. […] 60 and 90 minutes after the SPC-5002 administration, the blood-glycose level is decreased to 33 and 52% while in the Placebo group it is maintained in the range of 13-14%.
# (§4) The comparison of glucose, insulin and free fatty acids concentration in
# (§5) normal men after the oral administration of 5 mg of SPC-5002 or 12.5 mg
# [4] = system: blood-glucose concentration; assay: Blood-glucose time course up to 24 hours in rats (Table 3); assay type: in vivo; settings: for glucose concentration in blood, average: oral 4 mg/kg
# Method: as §1, §2
# (§6) The comparison of SPC-5002 and Glibornuride effect on changes in
# concentration of rats in time up to 24 hours from the moment of the
# in an oral dose containing 4 mg/kg body weight
# [5] = system: blood-glucose concentration; assay: Decrease in blood-glucose concentration in rats after oral dose (Table 1; ED30 rats Table 2); assay type: in vivo; settings: Rattus norvegicus; for inhibition in vivo at 4 mg/kg: p.os. 4 mg/kg; for inhibition in vivo at 10 mg/kg: p.os. 10 mg/kg; for inhibition in vivo at 50 mg/kg: p.os. 50 mg/kg
# Description: as §1
# The exemplary comparison of effective doses (ED30) and the effect of oral dose size of the compounds prepared according to the present invention with Glibornuride, which is distinguished by its high effectiveness and good tolerance when administered to people, on the glucose concentration in the blood of rats, is given in Table 1.
# glucose concentration = assay: Blood glucose in normal men volunteers (Table 7); assay type: in vivo; settings: for Glucose concentration: oral 5 mg SPC-5002 or 12.5 mg Glibornuride
# Method: as §1, §3, §4, §5
# [6] = system: calcium transmission in mitochondria of a rat's liver; assay: Calcium transmission to rat liver mitochondria; assay type: biochemical; settings: for % of inhibition, calcium transmission: medium with CaCl 300 nmoles/ml; for Ki / preference of inhibition: calcium transmission versus oxidizing processes: rat liver mitochondria
# Method: Sucrose 170mM, KCl 10 mM, MgCl2 […], K2 HPO 5 mM, EGTA 0.01 mM
# 2-oxoglutaran 2 mM, ADP 1 mM, mitochondria
# protein 4 mg/m. Temperature 25° C.
# of hydrogen ion consumption. The calcium transmission to mitochondria was
# studied with two methods; in a continuous way with a Radiometer calcium
# electrode type F2112 or with an isotopic method.
# *The medium contained Ca Cl 300 nmoles/ml.
# [7] = system: oxygen consumption in mitochondria of a rat's liver; assay: Oxygen consumption of rat liver mitochondria; assay type: biochemical; settings: for Ki: rat liver mitochondria
# Method: 2-oxoglutaran 2 mM, ADP 1 mM, mitochondria | protein 4 mg/m. […] The
# [8] = system: blood-glucose concentration; assay: Blood-glucose time course up to 24 hours in rabbits (Table 4); assay type: in vivo; settings: oral 5 mg/kg
# Method: as §1, with “oxidase. […]” for “oxidase.”
# as §6
# concentration of rabbits in time up to 24 hours from the moment of the
# in an oral dose containing 5 mg/kg body weight
# insulin concentration = assay: Insulin in normal men volunteers (Table 7); assay type: in vivo; settings: oral 5 mg SPC-5002 or 12.5 mg Glibornuride
# Method: as §3, §4, §5
# [9] = system: blood-glucose concentration; assay: ED30 oral hypoglycemic dose in mice (Table 2); assay type: in vivo
# Method: as §1, §2
smiles,measurement,setting,value
"Cc1ccc(S(=O)(=O)NC(=O)N[C@H]2[C@H]3CC[C@@](C)([C@H]2O)C3(C)C)cc1 [Glibornuride, N-(p-toluenesulphonyl)-N'-(2-endo-hydroxy-3-endo-bornyl)-urea, reference compound]",ED30,[1],7.6 mg/kg
same,"% of inhibition, oxidizing phosphorylation",[2]; concentration 0.5 n M,32%
same,"% of inhibition, oxidizing phosphorylation",[2]; concentration 1.0 n M,59%
same,Ki,[2],760 µM
same,Free fatty acids concentration,[3]; 0 mins (empty stomach),0.76 mEq/1000 cc
same,Free fatty acids concentration,[3]; 30 mins,0.58 mEq/1000 cc
same,Free fatty acids concentration,[3]; 60 mins,0.46 mEq/1000 cc
same,Free fatty acids concentration,[3]; 90 mins,0.48 mEq/1000 cc
same,Free fatty acids concentration,[3]; 120 mins,0.51 mEq/1000 cc
same,Free fatty acids concentration,[3]; 180 mins,0.52 mEq/1000 cc
same,duration of decreased blood glucose after one dose,[4]; one dose,6 h
same,"glucose concentration in blood, average",[4]; 0 h,68 mg/100 cc
same,"glucose concentration in blood, average",[4]; 1 h,48 mg/100 cc
same,"glucose concentration in blood, average",[4]; 3 h,47 mg/100 cc
same,"glucose concentration in blood, average",[4]; 6 h,65 mg/100 cc
same,"glucose concentration in blood, average",[4]; 9 h,74 mg/100 cc
same,"glucose concentration in blood, average",[4]; 24 h,77 mg/100 cc
same,ED30,"[5]; oral, read-out: Effective oral doses ED30",3.8 mg/kg
same,decrease in glucose blood level at peak of activity,glucose concentration; dose 2.5 times that of SPC-5002 (12.5 mg),19%
same,Glucose concentration,glucose concentration; 0 mins (empty stomach),91.0 mg/100 cc
same,Glucose concentration,glucose concentration; 30 mins,87.0 mg/100 cc
same,Glucose concentration,glucose concentration; 60 mins,80.0 mg/100 cc
same,Glucose concentration,glucose concentration; 90 mins,74.0 mg/100 cc
same,Glucose concentration,glucose concentration; 120 mins,75.0 mg/100 cc
same,Glucose concentration,glucose concentration; 180 mins,76.0 mg/100 cc
same,Calcium transmission / Oxide consumption (ratio of inhibition),[6]; concentration 0.5 n M,2.36
same,"% of inhibition, calcium transmission",[6]; concentration 0.5 n M,52%
same,Calcium transmission / Oxide consumption (ratio of inhibition),[6]; concentration 1.0 n M,1.60
same,"% of inhibition, calcium transmission",[6]; concentration 1.0 n M,76%
same,Ki,[6],490 µM
same,preference of inhibition: calcium transmission versus oxidizing processes,[6],preferential inhibiting of calcium transmission
same,"% of inhibition, oxygen consumption",[7]; concentration 0.5 n M,22%
same,"% of inhibition, oxygen consumption",[7]; concentration 1.0 n M,47%
same,Ki,[7],1150 µM
same,"glucose concentration in blood, average",[8]; 0 h,74 mg/100 cc
same,"glucose concentration in blood, average",[8]; 0.5 h,62 mg/100 cc
same,"glucose concentration in blood, average",[8]; 1 h,63 mg/100 cc
same,% of decrease /-/ or increase /+/ of blood glucose,[8]; 3 h,0%
same,"glucose concentration in blood, average",[8]; 3 h,74 mg/100 cc
same,"glucose concentration in blood, average",[8]; 6 h,75 mg/100 cc
same,"glucose concentration in blood, average",[8]; 9 h,75 mg/100 cc
same,"glucose concentration in blood, average",[8]; 24 h,78 mg/100 cc
same,Insulin concentration,insulin concentration; 0 mins (empty stomach),3.6 μU/cc
same,Insulin concentration,insulin concentration; 30 mins,4.2 μU/cc
same,Insulin concentration,insulin concentration; 60 mins,6.2 μU/cc
same,Insulin concentration,insulin concentration; 90 mins,5.2 μU/cc
same,Insulin concentration,insulin concentration; 120 mins,6.4 μU/cc
same,Insulin concentration,insulin concentration; 180 mins,4.4 μU/cc
same,ED30 relative to SPC-5002,[9],almost three times as big as for SPC-5002
same,ED30,"[9]; Mus musculus, oral, read-out: Effective oral doses ED30",5.2 mg/kg
COc1ccc(Cl)cc1C(=O)NCCc1ccc(S(=O)(=O)NC(=O)NC2CCCCC2)cc1 [Glibenclamide],"% of inhibition, oxidizing phosphorylation",[2]; concentration 0.01 n M,29%
same,"% of inhibition, oxidizing phosphorylation",[2]; concentration 0.02 n M,48%
same,"% of inhibition, oxidizing phosphorylation",[2]; concentration 0.05 n M,60%
same,"% of inhibition, oxidizing phosphorylation",[2]; concentration 0.1 n M,80%
same,"% of inhibition, oxidizing phosphorylation",[2]; concentration 0.5 n M,100%
same,Ki,[2],22 µM
same,Calcium transmission / Oxide consumption (ratio of inhibition),[6]; concentration 0.01 n M,0.46
same,"% of inhibition, calcium transmission",[6]; concentration 0.01 n M,12%
same,Calcium transmission / Oxide consumption (ratio of inhibition),[6]; concentration 0.02 n M,0.65
same,"% of inhibition, calcium transmission",[6]; concentration 0.02 n M,28%
same,Calcium transmission / Oxide consumption (ratio of inhibition),[6]; concentration 0.05 n M,0.82
same,"% of inhibition, calcium transmission",[6]; concentration 0.05 n M,52%
same,Calcium transmission / Oxide consumption (ratio of inhibition),[6]; concentration 0.1 n M,0.90
same,"% of inhibition, calcium transmission",[6]; concentration 0.1 n M,68%
same,Calcium transmission / Oxide consumption (ratio of inhibition),[6]; concentration 0.5 n M,0.97
same,"% of inhibition, calcium transmission",[6]; concentration 0.5 n M,85%
same,Ki,[6],47 µM
same,preference of inhibition: calcium transmission versus oxidizing processes,[6],acts much stronger on oxidizing and phosphorylation processes than on the calcium transmission
same,"Ki ratio SPC-5002 / Glibenclamide, calcium transmission",[6]; ratio of inhibitor constants,10
same,"% of inhibition, oxygen consumption",[7]; concentration 0.01 n M,26%
same,"% of inhibition, oxygen consumption",[7]; concentration 0.02 n M,43%
same,"% of inhibition, oxygen consumption",[7]; concentration 0.05 n M,60% and 63%
same,"% of inhibition, oxygen consumption",[7]; concentration 0.1 n M,75%
same,"% of inhibition, oxygen consumption",[7]; concentration 0.5 n M,87%
same,Ki,[7],30 µM
CCCCNC(=O)NS(=O)(=O)c1ccc(C)cc1 [Tolbutamide],"% of inhibition, oxidizing phosphorylation",[2]; concentration 1.0 n M,7%
same,Calcium transmission / Oxide consumption (ratio of inhibition),[6]; concentration 1.0 n M,1.92
same,"% of inhibition, calcium transmission",[6]; concentration 1.0 n M,27%
same,preference of inhibition: calcium transmission versus oxidizing processes,[6],preferential inhibiting of calcium transmission
same,"% of inhibition, oxygen consumption",[7]; concentration 1.0 n M,14%
Cc1ccn(C(=O)NCCc2ccc(S(=O)(=O)NC(=O)NC3CCCC3)cc2)n1 [compound 16],inhibition in vivo at 4 mg/kg,"[5]; po, 1 h",18%
same,inhibition in vivo at 4 mg/kg,"[5]; po, 3 h",14%
same,inhibition in vivo at 10 mg/kg,"[5]; po, 1 h",16%
same,inhibition in vivo at 10 mg/kg,"[5]; po, 3 h",20%
Cc1nn(C(=O)NCCc2ccc(S(=O)(=O)NC(=O)NC3CCCCC3)cc2)c(C)c1C [compound 10],inhibition in vivo at 4 mg/kg,"[5]; po, 1 h",24%
same,inhibition in vivo at 4 mg/kg,"[5]; po, 3 h",35%
same,inhibition in vivo at 4 mg/kg,"[5]; po, 6 h",28%
same,inhibition in vivo at 10 mg/kg,"[5]; po, 1 h",35%
same,inhibition in vivo at 10 mg/kg,"[5]; po, 3 h",49%
same,inhibition in vivo at 10 mg/kg,"[5]; po, 6 h",17%
same,inhibition in vivo at 50 mg/kg,"[5]; po, 1 h",48%
same,inhibition in vivo at 50 mg/kg,"[5]; po, 3 h",62%
same,inhibition in vivo at 50 mg/kg,"[5]; po, 6 h",52%
same,ED50,"[5]; po, p.os., Table 1",4 mg/kg
